Experimental data from ChEMBL document CHEMBL3596163, “Discovery of imidazo[1,5-a]pyridines and -pyrimidines as potent and selective RORc inverse agonists” (Bioorg Med Chem Lett, 2015).
Calls of active or inactive are those of the source. No cut-off for these calls is given here.

Tests used:
[1] = target: T1, Nuclear receptor ROR-gamma (Homo sapiens, UniProt P51449); assay: Inverse agonist activity at GAL4-fused human RORc expressed in HEK293T cells assessed as suppression of basal transcriptional activity after 20 hrs by dual-glo luciferase reporter gene assay; assay type: functional, cell-based, HEK-293T
T1 sequence (P51449 whole entry): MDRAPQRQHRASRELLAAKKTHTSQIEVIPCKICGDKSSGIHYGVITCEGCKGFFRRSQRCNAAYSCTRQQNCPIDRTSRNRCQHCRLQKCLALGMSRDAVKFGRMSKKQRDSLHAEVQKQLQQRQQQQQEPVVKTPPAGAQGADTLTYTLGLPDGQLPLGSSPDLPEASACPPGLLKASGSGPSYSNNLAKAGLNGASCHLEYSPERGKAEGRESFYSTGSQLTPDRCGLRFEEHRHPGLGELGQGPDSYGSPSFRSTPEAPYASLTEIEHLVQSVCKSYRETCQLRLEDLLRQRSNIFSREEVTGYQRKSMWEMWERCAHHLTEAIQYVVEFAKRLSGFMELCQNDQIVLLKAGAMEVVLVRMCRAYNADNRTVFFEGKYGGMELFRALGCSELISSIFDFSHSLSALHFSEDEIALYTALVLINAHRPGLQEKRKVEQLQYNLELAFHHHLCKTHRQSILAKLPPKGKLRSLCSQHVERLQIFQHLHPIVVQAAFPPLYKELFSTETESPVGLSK

PBMC [2] = assay: Inhibition of IFNgamma production in human PBMC after 48 hrs by Sandwich ELISA; assay type: functional, cell-based
[3] = target: T1, Nuclear receptor ROR-gamma; assay: Inverse agonist activity at N-terminal 6xHis-tagged human RORc ligand binding domain (241 to 486) expressed in bacterial expression system assessed as inhibition of SRC1 co-activator peptide recruitment after 3 hrs by TR-FRET analysis; assay type: functional
[4] = target: T2, Nuclear receptor ROR-beta (Homo sapiens, UniProt Q92753); assay: Inverse agonist activity at GAL4-fused human RORb expressed in HEK293T cells assessed as suppression of basal transcriptional activity after 20 hrs by dual-glo luciferase reporter gene assay; assay type: cell-based, HEK-293T
T2 sequence (Q92753 whole entry): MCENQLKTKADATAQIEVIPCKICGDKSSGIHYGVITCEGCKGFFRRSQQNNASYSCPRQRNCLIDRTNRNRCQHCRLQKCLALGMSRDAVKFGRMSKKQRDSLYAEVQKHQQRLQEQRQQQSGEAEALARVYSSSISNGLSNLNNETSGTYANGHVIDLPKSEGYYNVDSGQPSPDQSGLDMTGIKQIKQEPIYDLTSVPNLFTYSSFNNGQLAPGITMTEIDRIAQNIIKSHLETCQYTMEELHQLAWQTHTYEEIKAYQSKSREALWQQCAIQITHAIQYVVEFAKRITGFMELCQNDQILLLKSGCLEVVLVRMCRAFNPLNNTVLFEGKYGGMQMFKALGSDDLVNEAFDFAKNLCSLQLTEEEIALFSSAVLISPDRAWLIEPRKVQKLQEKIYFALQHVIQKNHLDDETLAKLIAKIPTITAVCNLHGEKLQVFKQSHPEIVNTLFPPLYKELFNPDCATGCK

[5] = target: T3, Bile acid receptor (Homo sapiens) (UniProt Q96RI1); assay: Antagonist activity at GAL4-fused human FXR expressed in HEK293T cells assessed as inhibition of T0901317-induced basal transcriptional activity up to 10 uM after 20 hrs by dual-glo luciferase reporter gene assay; assay type: cell-based; conditions: HEK-293T
T3 sequence (whole entry): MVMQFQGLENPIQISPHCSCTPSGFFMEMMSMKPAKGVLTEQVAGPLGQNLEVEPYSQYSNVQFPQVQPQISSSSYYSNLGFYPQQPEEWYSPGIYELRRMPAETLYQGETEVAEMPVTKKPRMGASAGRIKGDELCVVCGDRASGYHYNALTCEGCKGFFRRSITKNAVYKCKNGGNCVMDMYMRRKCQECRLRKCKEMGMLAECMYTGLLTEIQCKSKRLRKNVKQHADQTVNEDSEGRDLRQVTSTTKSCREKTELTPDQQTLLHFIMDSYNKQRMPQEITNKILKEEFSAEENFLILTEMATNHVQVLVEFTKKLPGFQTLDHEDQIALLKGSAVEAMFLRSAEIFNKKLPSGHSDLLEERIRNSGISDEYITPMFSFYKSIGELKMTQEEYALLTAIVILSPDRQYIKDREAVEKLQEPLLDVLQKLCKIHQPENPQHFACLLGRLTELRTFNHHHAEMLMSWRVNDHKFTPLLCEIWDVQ

[6] = target: T4, Peroxisome proliferator-activated receptor gamma (Homo sapiens, UniProt P37231); assay: Displacement of fluormone PPARgamma green from GST-tagged human PPARgamma-LBD after 2 hrs by fluorescence polarization assay
T4 sequence (P37231 whole entry): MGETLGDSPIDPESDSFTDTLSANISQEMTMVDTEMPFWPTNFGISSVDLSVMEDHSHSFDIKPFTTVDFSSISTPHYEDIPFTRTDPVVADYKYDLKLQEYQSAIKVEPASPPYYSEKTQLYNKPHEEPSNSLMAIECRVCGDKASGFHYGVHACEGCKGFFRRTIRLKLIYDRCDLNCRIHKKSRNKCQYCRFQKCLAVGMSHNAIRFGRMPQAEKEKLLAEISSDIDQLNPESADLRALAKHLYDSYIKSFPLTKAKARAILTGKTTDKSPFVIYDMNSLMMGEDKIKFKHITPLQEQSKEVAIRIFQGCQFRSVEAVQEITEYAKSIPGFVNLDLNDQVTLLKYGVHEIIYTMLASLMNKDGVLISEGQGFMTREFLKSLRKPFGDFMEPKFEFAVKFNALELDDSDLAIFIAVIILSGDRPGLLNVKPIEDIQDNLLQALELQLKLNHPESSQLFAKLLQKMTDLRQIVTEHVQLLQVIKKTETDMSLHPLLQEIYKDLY

[7] = Lipophilicity, log D of the compound at pH 7.4; assay type: physicochemical; conditions: buffer
PBMC [8] = assay: Antiinflammatory activity in human PBMC assessed as inhibition of IL-17 production after 48 hrs by Sandwich ELISA; assay type: functional, cell-based
[9] = target: T5, Oxysterols receptor LXR-alpha (Homo sapiens) (UniProt Q13133); assay: Antagonist activity at GAL4-fused human LXRalpha expressed in HEK293T cells assessed as inhibition of T0901317-induced basal transcriptional activity up to 10 uM after 20 hrs by dual-glo luciferase reporter gene assay; assay type: cell-based; conditions: HEK-293T
T5 sequence (whole entry): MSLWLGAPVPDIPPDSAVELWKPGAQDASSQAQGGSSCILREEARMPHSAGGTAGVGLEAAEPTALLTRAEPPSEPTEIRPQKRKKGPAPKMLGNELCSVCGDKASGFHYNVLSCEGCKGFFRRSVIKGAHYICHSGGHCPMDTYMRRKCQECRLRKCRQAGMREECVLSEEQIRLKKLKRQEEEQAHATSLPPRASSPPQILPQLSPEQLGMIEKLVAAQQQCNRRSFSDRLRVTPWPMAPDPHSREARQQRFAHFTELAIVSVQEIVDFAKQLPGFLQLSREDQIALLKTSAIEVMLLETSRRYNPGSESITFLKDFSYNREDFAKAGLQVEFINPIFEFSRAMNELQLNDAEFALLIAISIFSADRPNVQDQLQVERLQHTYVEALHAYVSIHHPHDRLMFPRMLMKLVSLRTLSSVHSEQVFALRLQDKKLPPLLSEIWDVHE

| SMILES | EC50 [1] [nM] | EC50 (PBMC [2]) [µM] | EC50 [3] [nM] | EC50 [4] [µM] | inhibition [5] | IC50 [6] [nM] | logD [7] | EC50 (PBMC [8]) [nM] | inhibition [9] |
| --- | --- | --- | --- | --- | --- | --- | --- | --- | --- |
| O=C(O)c1ccc(-c2nc(C(=O)c3c(Cl)cccc3C(F)(F)F)n3ccccc23)cc1O | 4 | > 10 | 2 | > 10 | inactive | 650 | 2.5 | 17 | inactive |
| O=C(O)c1ccc(-c2nc(C(=O)c3c(Cl)cccc3C3CC3)n3c2CCCC3)c(F)c1 | 26 | > 10 | 27 | > 10 | inactive | 1300 | 1.6 | 300 | inactive |
| O=C(O)c1ccc(-c2nc(C(=O)c3c(Cl)cccc3C(F)(F)F)n3ccccc23)cc1 |  | > 10 |  | > 10 | inactive |  | 1.5 | 230 | inactive |
| O=C(O)c1ccc(-c2nc(C(=O)c3c(Cl)cccc3C(F)(F)F)n3ccccc23)c(F)c1 | 10 | > 10 | 9 | > 10 | inactive | 320 | 1.8 | 120 | inactive |
| O=C(O)c1ccc(-c2nc(C(=O)c3c(Cl)cccc3C3CC3)n3cccnc23)cc1O | 13 | > 10 | 2 | > 10 | inactive | 3400 | 1.5 | 30 | inactive |
| O=C(O)c1ccc(-c2nc(C(=O)c3c(Cl)cccc3C(F)(F)F)n3c2CCCC3)c(F)c1 | 36 | > 10 | 32 | > 10 | inactive | 760 | 1.3 | 230 | inactive |
